In the supplement of paper PMC8671470:

Experiments:
Details in all cases: 72 h
MV4-11 = tested on: MV4-11
In short: (§1)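 In 384-well plates holding acoustically pre-printed compounds at five tenfold doses from 1 to 10,000 nM, in duplicate, fifteen myeloid leukaemia cell lines were grown in RPMI 1640 for 72 h at 37 °C with 5% CO2. Luminescent ATP viability was scaled between vehicle and a positive control at 10 µM. The IC50 was then taken from log-logistic dose–response fits with four parameters.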

K-562 = tested on: K-562
In short: as §1

SHI-1 = tested on: SHI-1
In short: as §1

NOMO-1 = tested on: NOMO-1
In short: as §1

Mono-Mac-6 = tested on: Mono-Mac-6
In short: as §1

HL-60 = tested on: HL-60
In short: as §1

KU-812 = tested on: KU-812
In short: as §1

HEL = tested on: HEL
In short: as §1

ML-2 = tested on: ML-2
In short: as §1

BV-173 = tested on: BV-173
In short: as §1

MOLM-13 = tested on: MOLM-13
In short: as §1

THP-1 = tested on: THP-1
In short: as §1

KG-1 = tested on: KG-1
In short: as §1

LAMA-84 = tested on: LAMA-84
In short: as §1

Compound	IC50 (cell viability) (MV4-11)	IC50 (cell viability) (K-562)	IC50 (cell viability) (SHI-1)	IC50 (cell viability) (NOMO-1)	IC50 (cell viability) (Mono-Mac-6)	IC50 (cell viability) (HL-60)	IC50 (cell viability) (KU-812)	IC50 (cell viability) (HEL)	IC50 (cell viability) (ML-2)	IC50 (cell viability) (BV-173)	IC50 (cell viability) (MOLM-13)	IC50 (cell viability) (THP-1)	IC50 (cell viability) (KG-1)	IC50 (cell viability) (LAMA-84)
CN(C)C(=N)NC(=N)N [Metformin]	> 10 µM	> 10 µM	> 10 µM	> 10 µM	> 10 µM	> 10 µM	> 10 µM	> 10 µM	> 10 µM	> 10 µM	> 10 µM	> 10 µM	> 10 µM	> 10 µM
O[C@H]1[C@H](O)[C@@H](O)CN2CC[C@H](O)[C@H]12 [Castanospermine]	> 10 µM	> 10 µM	> 10 µM	> 10 µM	> 10 µM	> 10 µM	> 10 µM	> 10 µM	> 10 µM	> 10 µM	> 10 µM	> 10 µM	> 10 µM	> 10 µM
CCCCC/C=C\C/C=C\C/C=C\C/C=C\CCCC(=O)C(F)(F)F [Arachidonyl trifluoromethyl ketone]	> 10 µM	> 10 µM	> 10 µM	> 10 µM	7.99 µM	> 10 µM	> 10 µM	> 10 µM	> 10 µM	> 10 µM	> 10 µM	> 10 µM	> 10 µM	> 10 µM
CC1Cc2ccccc2N1NC(=O)c1ccc(Cl)c(S(N)(=O)=O)c1 (stereo unspecified) [Indapamide]	> 10 µM	> 10 µM	> 10 µM	> 10 µM	> 10 µM	> 10 µM	> 10 µM	> 10 µM	> 10 µM	> 10 µM	> 10 µM	> 10 µM	> 10 µM	> 10 µM
N=C(N)c1ccc(N=NNc2ccc(C(=N)N)cc2)cc1 [Diminazene]	> 10 µM	> 10 µM	> 10 µM	> 10 µM	> 10 µM	> 10 µM	> 10 µM	> 10 µM	> 10 µM	> 10 µM	> 10 µM	> 10 µM	> 10 µM	> 10 µM
CNC(=C[N+](=O)[O-])NCCSCc1ccc(CN(C)C)o1 [Ranitidine]	> 10 µM	> 10 µM	> 10 µM	> 10 µM	> 10 µM	> 10 µM	> 10 µM	> 10 µM	> 10 µM	> 10 µM	> 10 µM	> 10 µM	> 10 µM	> 10 µM
O=C(C(=O)c1ccc(Br)cc1)c1ccc(Br)cc1 [4,4'-Dibromobenzil]	> 10 µM	> 10 µM	> 10 µM	> 10 µM	> 10 µM	> 10 µM	> 10 µM	> 10 µM	> 10 µM	> 10 µM	> 10 µM	> 10 µM	> 10 µM	> 10 µM
CC(=O)N[C@@H](CS)C(=O)O [Acetylcysteine]	> 10 µM	> 10 µM	> 10 µM	> 10 µM	> 10 µM	> 10 µM	> 10 µM	> 10 µM	> 10 µM	> 10 µM	> 10 µM	> 10 µM	> 10 µM	> 10 µM
CCCCCCCNC=O [N-Heptyl-Formamide]	> 10 µM	> 10 µM	> 10 µM	> 10 µM	> 10 µM	> 10 µM	> 10 µM	> 10 µM	> 10 µM	> 10 µM	> 10 µM	> 10 µM	> 10 µM	> 10 µM
